These results are taken from PubChem BioAssay (NCI).

Several values for one entry are separate records, joined by “and”; a condition that tells them apart may be missing. Equal values may be shown once.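 Following 48 hours of exposure in 96-well plates, responses at five concentrations were used to interpolate endpoints linearly. At the GI50, growth is halved. TGI denotes the concentration required for complete inhibition of growth.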

Some test systems named below: A498 renal; ACHN renal; CAKI-1 renal; HCT-116 colon; HOP-62 NSCLC; HS 578T breast; IGROV1 ovarian; MCF7 breast; NCI-H522 lung; SK-OV-3 ovarian.
Holding throughout (assay): DTP human tumour cell line panel, 48 h

The term GI50 denotes the concentration at which growth is held to half of that of the control. In general, TGI refers to the concentration giving total growth inhibition. Low values mean more potent growth arrest, high ones less potent growth arrest. On to `CCN(CC)CCCC(C)Nc1cnc(C(=O)Nc2cccc3ccc(OC)nc23)cn1` (stereo not given), for which the GI50 in the assay with A498 renal was 4520 nM; in the assay with ACHN renal, 1830 nM; with CAKI-1 renal, 1770 nM; in the assay on HCT-116 colon it was 1620 nM; with HOP-62 NSCLC it was 1830 nM; in the assay on HS 578T breast, 11000 nM. Moreover, the GI50 was 2090 nM in the assay on IGROV1 ovarian, 1670 nM in the assay on MCF7 breast, 1890 nM in the assay on NCI-H522 lung and 15000 nM in the assay with SK-OV-3 ovarian. Further, the TGI in the assay on A498 renal is 18 µM; in the assay with ACHN renal it was 3.48 µM; in the assay on CAKI-1 renal it was 3.76 µM; in the assay with HCT-116 colon it was 3.44 µM; in the assay with HOP-62 NSCLC, 3.71 µM; in the assay on HS 578T breast, 28.5 µM. Also, the concentration for total growth inhibition (TGI) was found to be 4.91 µM in the assay with IGROV1 ovarian, 3.41 µM in the assay on MCF7 breast, 3.79 µM in the assay with NCI-H522 lung and 28.4 µM in the assay with SK-OV-3 ovarian.

On to `CC(C)(C)c1ccc(O)c(CN(Cc2cc(C(C)(C)C)ccc2O)c2ccccc2)c1`, for which the total growth inhibition concentration (TGI) with A498 renal is 28.1 µM; in the assay with ACHN renal it was 35.5 µM; in the assay on CAKI-1 renal, greater than 100 µM; with HCT-116 colon, 33.9 µM; with HOP-62 NSCLC, 47.6 µM; in the assay on HS 578T breast, 42 µM. The TGI stood at 47.7 µM in the assay with IGROV1 ovarian, 38.9 µM in the assay on MCF7 breast, 26.9 µM with NCI-H522 lung and 84.8 µM in the assay with SK-OV-3 ovarian.

Consider `C/C=C(\C)CC/C=C/CO[Si](C)(C)C(C)(C)C`, for which the TGI in the assay with A498 renal, in the assay on ACHN renal, with CAKI-1 renal, with HCT-116 colon, in the assay on HOP-62 NSCLC and in the assay on HS 578T breast was greater than 100 µM each time. Besides, the TGI with IGROV1 ovarian, in the assay with MCF7 breast, in the assay on NCI-H522 lung and with SK-OV-3 ovarian was greater than 100 µM each time.

As to `COC(=O)[C@H](Cc1c[nH]c2ccccc12)NC(=O)[C@@H](OC)[C@@H]1Cc2cc3cc(OC4CC(OC5CC(O)C(O)C(C)O5)C(O)C(C)O4)c(C)c(O)c3c(O)c2C(=O)[C@H]1OC1CC(OC2CC(OC3CC(C)(O)C(O)C(C)O3)C(O)C(C)O2)C(O)C(C)O1` (stereo not given in full), the GI50 with A498 renal is 5.17 nM; in the assay on ACHN renal, 47.5 nM; in the assay on CAKI-1 renal it was 345 nM; in the assay with HCT-116 colon, 5.37 nM; in the assay with HOP-62 NSCLC it was 7.71 nM; with HS 578T breast, 5.66 nM. For the same compound, the concentration for 50% growth inhibition (GI50) was 7.43 nM in the assay with IGROV1 ovarian, 3.91 nM with MCF7 breast, 5.09 nM with NCI-H522 lung and 11.6 nM with SK-OV-3 ovarian. For the same compound, the total growth inhibition concentration (TGI) was 0.0249 µM in the assay with A498 renal; 0.907 µM in the assay with ACHN renal; greater than 16.5 µM in the assay with CAKI-1 renal; greater than 16.5 µM in the assay with HCT-116 colon; 5.53 µM in the assay with HOP-62 NSCLC; 0.157 µM with HS 578T breast. For the same compound, the TGI in the assay on IGROV1 ovarian was greater than 7.79 µM; with MCF7 breast, 2.55 µM; in the assay on NCI-H522 lung it was 0.0552 µM; in the assay with SK-OV-3 ovarian, greater than 16.5 µM.

With `COc1cc(NS(=O)(=O)c2ccc(-c3cnc(C4CC4)o3)cc2)ccc1F`, the 50% growth inhibitory concentration (GI50) with A498 renal was 83.3 nM; in the assay on ACHN renal, 594 nM; with CAKI-1 renal it was 408 nM; with HCT-116 colon, 290 nM; in the assay on HOP-62 NSCLC it was 646 nM; in the assay with HS 578T breast, 376 nM. Also, the GI50 in the assay with IGROV1 ovarian is 439 nM; in the assay with MCF7 breast, 201 nM; in the assay on NCI-H522 lung it was 316 nM; in the assay on SK-OV-3 ovarian it was 606 nM. Further, the total growth inhibition concentration (TGI) in the assay on A498 renal was found to be 0.892 µM; in the assay on ACHN renal, 46 µM; in the assay with CAKI-1 renal, 30.6 µM; with HCT-116 colon, 14.1 µM; in the assay on HOP-62 NSCLC, 18.8 µM; in the assay on HS 578T breast it was 23.5 µM. For the same compound, the TGI in the assay on IGROV1 ovarian amounted to 24.6 µM; in the assay with MCF7 breast, 22.9 µM; in the assay with NCI-H522 lung, 11.8 µM; in the assay on SK-OV-3 ovarian, 34.6 µM.

As for `COc1cc2c3c(n(C)c(=O)c2cc1OC)-c1cc2c(cc1/C3=C\CNCCCN)OCO2`, the GI50 in the assay with A498 renal was 3840 nM; in the assay with ACHN renal, 271 nM; in the assay on CAKI-1 renal it was 848 nM; with HCT-116 colon, 107 nM; in the assay on HOP-62 NSCLC, 625 nM; in the assay on HS 578T breast it was 1280 nM. Moreover, the GI50 in the assay on IGROV1 ovarian was 284 nM; with MCF7 breast, 1040 nM; with NCI-H522 lung it was 348 nM; with SK-OV-3 ovarian it was 1260 nM. Further, the concentration for total growth inhibition (TGI) was 12.1 µM with A498 renal; 2.07 µM in the assay with ACHN renal; 16 µM in the assay with CAKI-1 renal; 4.19 µM with HCT-116 colon; 10.9 µM in the assay on HOP-62 NSCLC; 6.06 µM in the assay with HS 578T breast. Also, the TGI is 16.5 µM in the assay with MCF7 breast and greater than 88.2 µM with SK-OV-3 ovarian.

As to `COc1ccccc1Cn1cc2c(c1-c1ccccc1)CCc1cnoc1-2`, the GI50 in the assay on A498 renal is 1100 nM; with ACHN renal, 5270 nM; in the assay on CAKI-1 renal, 1860 nM; in the assay on HCT-116 colon it was 2800 nM; in the assay with HOP-62 NSCLC, 3730 nM; with HS 578T breast it was 1450 nM. Moreover, the GI50 is 3600 nM in the assay on IGROV1 ovarian, 2330 nM with MCF7 breast, 398 nM in the assay on NCI-H522 lung and 3500 nM in the assay with SK-OV-3 ovarian. Further, the concentration for total growth inhibition (TGI) is 7.18 µM in the assay with A498 renal; greater than 100 µM with ACHN renal; greater than 100 µM with CAKI-1 renal; greater than 100 µM in the assay on HCT-116 colon; greater than 100 µM in the assay with HOP-62 NSCLC; 6.32 µM in the assay with HS 578T breast. The concentration for total growth inhibition (TGI) in the assay on IGROV1 ovarian is greater than 100 µM; in the assay on MCF7 breast, greater than 100 µM; in the assay on NCI-H522 lung, 1.99 µM; in the assay on SK-OV-3 ovarian it was greater than 100 µM.

Turning to `NCCCn1c2c(c3ccc([N+](=O)[O-])cc3c1=O)C(=O)c1cc(Br)ccc1-2`, the GI50 with A498 renal is 2.31 nM; with ACHN renal it was 18.7 nM; in the assay on CAKI-1 renal, 219 nM; with HCT-116 colon, 185 nM and 48.4 nM; in the assay with HOP-62 NSCLC it was 34 nM and 32.9 nM; with HS 578T breast it was 105 nM. In addition, the GI50 in the assay on IGROV1 ovarian is 75.4 nM; with NCI-H522 lung, 290 nM; in the assay with SK-OV-3 ovarian it was 348 nM. The total growth inhibition concentration (TGI) is 0.0628 µM in the assay on A498 renal; 0.0477 µM in the assay on ACHN renal; 0.623 µM in the assay with CAKI-1 renal; 0.348 µM and 0.207 µM with HCT-116 colon; 0.171 µM and 0.388 µM in the assay with HOP-62 NSCLC; 0.225 µM and 0.0325 µM with IGROV1 ovarian. The TGI was determined as 0.0696 µM with MCF7 breast and 2.03 µM in the assay with SK-OV-3 ovarian.

As to `COc1cc2c3c(n(CCCCOC(=O)C(Cl)(Cl)Cl)c(=O)c2cc1OC)-c1cc2c(cc1C3=O)OCO2`, the GI50 was greater than 100000 nM with A498 renal; 14200 nM with ACHN renal; 4610 nM in the assay with CAKI-1 renal; 17000 nM with HCT-116 colon; 29300 nM with HOP-62 NSCLC; 94700 nM in the assay on HS 578T breast. The GI50 was 14400 nM in the assay on IGROV1 ovarian, 11500 nM in the assay with MCF7 breast, 692 nM in the assay on NCI-H522 lung and greater than 100000 nM in the assay with SK-OV-3 ovarian. Besides, the total growth inhibition concentration (TGI) in the assay on A498 renal is greater than 100 µM; in the assay with ACHN renal, 59.5 µM; with CAKI-1 renal it was greater than 100 µM; in the assay with HCT-116 colon, 34.2 µM; with HOP-62 NSCLC, greater than 100 µM; with HS 578T breast it was greater than 100 µM. Besides, the concentration for total growth inhibition (TGI) is greater than 100 µM in the assay with IGROV1 ovarian, greater than 100 µM in the assay with MCF7 breast, 76.3 µM in the assay with NCI-H522 lung and greater than 100 µM in the assay on SK-OV-3 ovarian.

Take `Cn1cnc([N+](=O)[O-])c1[Se]c1nc(N)nc2c1ncn2C1OC(CO)C(O)C1O` (stereo not given): the concentration for total growth inhibition (TGI) in the assay on A498 renal, in the assay on ACHN renal, in the assay on CAKI-1 renal, with HCT-116 colon, in the assay on HOP-62 NSCLC and with HS 578T breast was greater than 100 µM each time. Besides, the TGI in the assay with IGROV1 ovarian, in the assay on MCF7 breast, in the assay on NCI-H522 lung and with SK-OV-3 ovarian was greater than 100 µM throughout.

For `CCOC(=O)c1c(C)nc2c(c1N)/C(=C/c1ccc(OC)cc1)C(=O)N2Cc1ccc(F)cc1`, the GI50 with A498 renal was 535 nM; in the assay on ACHN renal, 137 nM; in the assay on CAKI-1 renal it was 250 nM; in the assay on HCT-116 colon, 134 nM; in the assay on HOP-62 NSCLC, 497 nM; in the assay with HS 578T breast, 479 nM. Besides, the 50% growth inhibitory concentration (GI50) with IGROV1 ovarian was 235 nM; in the assay with MCF7 breast, 195 nM; in the assay on NCI-H522 lung, 125 nM; with SK-OV-3 ovarian, 692 nM. Also, the concentration for total growth inhibition (TGI) in the assay on A498 renal is 2.6 µM; in the assay on ACHN renal it was 0.529 µM; with CAKI-1 renal, 1.31 µM; in the assay on HCT-116 colon, 0.36 µM; with HOP-62 NSCLC, 2.17 µM; in the assay with HS 578T breast it was greater than 100 µM. For the same compound, the total growth inhibition concentration (TGI) stood at 0.733 µM in the assay with IGROV1 ovarian, 1.51 µM in the assay on MCF7 breast, 0.296 µM in the assay with NCI-H522 lung and 6.85 µM with SK-OV-3 ovarian.

Regarding `COc1ccc(OC)c(C(=O)c2oc3ccc(Br)cc3c2N)c1`, the GI50 is 92.3 nM with A498 renal; 627 nM in the assay on ACHN renal; 372 nM with CAKI-1 renal; 346 nM with HCT-116 colon; 490 nM in the assay with HOP-62 NSCLC; 403 nM with HS 578T breast. Moreover, the GI50 in the assay on IGROV1 ovarian was 2130 nM; with MCF7 breast, 289 nM; with NCI-H522 lung, 321 nM; in the assay on SK-OV-3 ovarian it was 515 nM. Also, the concentration for total growth inhibition (TGI) with A498 renal was 1.56 µM; with ACHN renal, greater than 65.1 µM; with CAKI-1 renal, greater than 100 µM; in the assay on HCT-116 colon it was 13.9 µM; in the assay on HOP-62 NSCLC, greater than 50.6 µM; in the assay with HS 578T breast, greater than 64.8 µM. The TGI is greater than 87.4 µM in the assay with IGROV1 ovarian, greater than 48.2 µM with MCF7 breast, 4.14 µM in the assay on NCI-H522 lung and 7.07 µM in the assay on SK-OV-3 ovarian.
